Test results published in patent publication US6043373A, “Heterocycle-fused thiazole derivatives” (Yungjin Pharmaceutical Co., Ltd., priority 1995, dated 2000).
pIC50: −log10 of the molar value.

What was measured:
H^+ /K^+ ATPase = target: T1, H^+ /K^+ ATPase (Oryctolagus cuniculus, UniProt P27112); assay: Inhibition of H^+ /K^+ ATPase (vesicles from gastric mucose membrane of rabbit); assay type: biochemical; details: pH 7.4, 37° C., 30 minutes preincubation, 15 minutes incubation; read-out: Enzyme Inhibition (IC50)
T1 construct: from tissue; host or cells: rabbit gastric mucosa, membrane vesicles (differential and Ficoll density gradient centrifugation)
T1 sequence (P27112 2-1035 limits assumed): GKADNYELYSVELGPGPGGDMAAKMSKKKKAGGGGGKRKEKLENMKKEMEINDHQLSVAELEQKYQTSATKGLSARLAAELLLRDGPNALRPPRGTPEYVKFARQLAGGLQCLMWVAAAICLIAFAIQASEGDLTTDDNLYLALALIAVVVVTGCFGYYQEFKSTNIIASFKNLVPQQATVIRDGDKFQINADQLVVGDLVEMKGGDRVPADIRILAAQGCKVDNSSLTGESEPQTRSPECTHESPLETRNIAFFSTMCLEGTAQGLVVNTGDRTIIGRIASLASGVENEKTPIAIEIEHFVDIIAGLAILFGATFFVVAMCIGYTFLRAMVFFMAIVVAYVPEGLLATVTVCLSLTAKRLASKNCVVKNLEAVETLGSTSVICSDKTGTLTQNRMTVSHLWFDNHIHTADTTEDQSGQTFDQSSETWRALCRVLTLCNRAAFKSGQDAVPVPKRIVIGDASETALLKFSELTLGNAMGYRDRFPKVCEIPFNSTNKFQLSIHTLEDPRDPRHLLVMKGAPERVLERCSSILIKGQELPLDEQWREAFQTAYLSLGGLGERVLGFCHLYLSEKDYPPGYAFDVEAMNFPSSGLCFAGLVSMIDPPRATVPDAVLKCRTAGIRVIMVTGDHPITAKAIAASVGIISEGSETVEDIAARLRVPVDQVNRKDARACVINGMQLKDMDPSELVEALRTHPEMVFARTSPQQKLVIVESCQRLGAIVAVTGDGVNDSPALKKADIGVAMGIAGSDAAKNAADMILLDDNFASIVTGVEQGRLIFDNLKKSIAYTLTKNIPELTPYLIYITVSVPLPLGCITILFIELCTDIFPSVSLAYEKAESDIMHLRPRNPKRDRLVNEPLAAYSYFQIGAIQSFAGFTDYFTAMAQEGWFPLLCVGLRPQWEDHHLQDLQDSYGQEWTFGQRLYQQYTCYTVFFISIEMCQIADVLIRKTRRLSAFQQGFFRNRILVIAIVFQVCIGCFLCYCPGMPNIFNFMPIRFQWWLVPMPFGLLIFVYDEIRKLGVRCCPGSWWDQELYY
T1 sequence (P18597 whole entry partner): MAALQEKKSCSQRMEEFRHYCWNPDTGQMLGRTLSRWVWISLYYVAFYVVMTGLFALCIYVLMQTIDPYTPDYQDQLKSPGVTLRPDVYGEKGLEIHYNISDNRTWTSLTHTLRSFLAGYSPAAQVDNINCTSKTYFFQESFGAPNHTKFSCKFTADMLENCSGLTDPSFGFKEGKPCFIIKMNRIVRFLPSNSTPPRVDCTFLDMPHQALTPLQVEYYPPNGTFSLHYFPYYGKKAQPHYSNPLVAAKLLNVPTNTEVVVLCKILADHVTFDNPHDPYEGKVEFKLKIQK
Protocol: Inhibition of H^+ /K^+ ATPase, a proton carrying enzyme, was measured by following the procedure of Saccomani et al. [Biochim. Biophy. Acta., 465, 311-330 (1977)]. Thus, a homogenate of the gastric mucose membrane of rabbit was used to prepare vesicles containing H^+ /K^+ ATPase by employing differential centrifugation and discontinuous density gradient centrifugation in Ficoll. The vesicles containing the enzyme were preincubated in a solution (0.5 ml) containing 1×10^-4 M, 1×10^-5 M, 1×10^-6 M, or 1×10^-7 M of the inventive compound (Example 21) and 5 mM of imidazole buffer (pH 7.4) at a temperature of about 37° C. for about 30 minutes. omeprazole was used as a control. A solution containing 2 mM of magnesium chloride, 40 mM of imidazole buffer (pH 7.4), 10 mM of potassium chloride and 10 mM of ATP was added to the mixture. The resulting mixture was incubated at 37° C. for 15 minutes and the reaction was terminated by adding 1 ml of ice-cold 22% solution of trichloroacetic acid. Enzyme activity was calculated by measuring the separated inorganic phosphate by following the method of Fiske and Subbarow [J. Biol. Chem., 66, 375-440 (1925)].

Ethanol-Induced Lesions = assay: Inhibition of Ethanol-Induced Lesions; assay type: in vivo, male Sprague-Dawley rats; details: rat, oral, 30 minutes before absolute ethanol (5 ml/kg); read-out: Anti-ulcer activity (ED50), Ethanol
Protocol: Inhibition activity of the inventive compound on the ethanol-induced ulcer was measured by using male sprague-Dawley rats weighing 180-200 g. Thus, rats were starved for 24 hours, and the inventive compound (Examples 1 and 17) or omeprazole as a positive control was orally administered. Thirty minutes later, absolute ethanol (5 ml/kg was orally administered. 1.5 hours later, the stomach was removed, and the degree of the wound of the stomach was measured. By comparing the measured values with the degree of the lesion of the stomach the reference group to which no test compound was administered, the effective dose (ED50) of the test compounds which inhibit the lesion by 50% were calculated and are shown in Table 3.

[1] = tested on: Acetic Acid-Induced Ulcer; assay: Inhibition of Acetic Acid-Induced Ulcer (healing); assay type: in vivo, male Sprague-Dawley rats; details: rat, oral, 30 mg/kg, for 10 days
Protocol: Inhibition activity of the inventive compound on-the acetic acid-induced ulcer was evaluated by using male Sprague-Dawley rats. Thus, rats were starved for 5 hours prior to carrying out the experiment.
20 Microliter of 30% acetic acid was injected into the submucosal layer of the stomach using a microsyringe to induce a circular ulcer on the stomach. Various doses of the inventive compounds (Examples 1 and 17) or omeprazole as a positive control were orally administered for 10 days, and the healing of ulcer by the action of the test compounds were observed. The percentages of the healing of the ulcer were calculated by comparing them with that of reference group.

Mepirizole-Induced Ulcer = assay: Inhibition of Mepirizole-Induced Ulcer (duodenum); assay type: in vivo, male Sprague-Dawley rats; details: rat, oral, 30 minutes before mepirizole (250 mg/kg); read-out: Anti-ulcer activity (ED50), Mepirizole
Protocol: Inhibition activity of the inventive compounds on the mepirizole-induced ulcers was measured by using male Spraque-Dawley rats weighing 200-230 g. Thus, rats were not starved, and the inventive compounds (Examples 1 and 17) or omeprazole as a positive control was orally administered. Thirty minutes later, mepirizole suspended in 1% CMC (250 mg/kg) was orally administered. […], the duodena were removed. The degree of the ulcer thereof was measured. By comparing the measured values with the degree of the ulcer of the duodena of the reference group to which no test compound was administered, the effective deses (ED50) of the test compounds which inhibit the ulcer by 50% were calculated and are shown in Table 3.

[2] = tested on: Indomethacin-Induced Lesions; assay: Inhibition of Indomethacin-Induced Lesions; assay type: in vivo, male Sprague-Dawley rats; details: rat, oral, before 35 mg/kg indomethacin s.c.; read-out: Anti-ulcer activity (ED50), Indomethacin
Protocol: Inhibition activities of the inventive compounds on the indome][…]-induced lesions was measured by using male Sprague-Dawley rats. Thus, rats were starved for 48 hours and prohibited from being supplied with water for 2 hours, and 35 mg/kg of indomethacin (Sigma Co.) as a causative of gastric lesions was subcutaneously administered. Before Indomethacine treatment, the inventive compounds (Examples 1 and 17) or omeprazole as a positive control was orally administered, and the inhibitions of lesions by the action of the test compounds were observed.

Stress-Induced Ulcer = assay: Inhibition of Stress-Induced Ulcer (water immersion); assay type: in vivo, male Sprague-Dawley rats; details: rat, oral, 30 minutes prior to immersion in water; read-out: Anti-ulcer activity (ED50), Stress
Protocol: Inhibition activity of the inventive compound on the stress-induced ulcer was evaluated by using male Sprague-Dawley rats. Thus, rats were starved for 24 hours prior to carrying out the experiment. Stress is an important factor for causing gastric lesions, and was applied to rats by immersing them in water. Thirty minutes prior to immersing rats into water, the inventive compounds (Examples 1 and 17) or omeprazole as a positive control was orally administered, and the inhibitions of ulcer by the action of the test compounds were observed.

Gastric Secretion = assay: Inhibition of gastric secretion (Shay pylorus ligation); assay type: in vivo, male Sprague-Dawley rats; details: rat, intraduodenal
Protocol: Inhibition of gastric secretion was measured by following the procedure of Shay ligation (Gastroenterology, 1954, 26, 903). Thus, male Sprague-Dawleyrats weighing 180-200 g were starved for 24 hours and their pylorus were ligated. Then, the inventive compounds (Examples 1, 13 and 17) or omeprazole as a positive control was administered into duodenum. Four hours later, the stomach was removed, and the acidity and amount of gastric juice were measured. By comparing the measured values with the acidity and amount of the gastric juice of the stomach of the reference group to which no test compound was administered, the inhibition of gastric secretion was calculated.

pIC50 (H^+ /K^+ ATPase) | SMILES | ED50 (Ethanol-Induced Lesions) | Anti-ulcer activity, Acetic acid: Percentage of healing [1] | ED50 (Mepirizole-Induced Ulcer) | ED50 [2] | ED50 (Stress-Induced Ulcer) | Gastric juice Secretion Inhibition (percent) (Gastric Secretion; 25 mg/kg, 4 hours) | ED50 (Gastric Secretion; 4 hours after pylorus ligation, read-out: Gastric juice Secretion Inhibition (ED50))
4.67 | CNc1nc2c(s1)CCc1c-2sc2nc(-c3ccccc3)cn12 [Example 2] |  |  |  |  |  |  | 
 | COc1ccc2[nH]c([S+]([O-])Cc3ncc(C)c(OC)c3C)nc2c1 (stereo not shown) [Omeprazole, reference compound] | 17.1 mg/kg | 27.1% | 2.8 mg/kg | 1.2 mg/kg | 4.4 mg/kg |  | 
3.70 | Br.Br.Nc1nc2c(s1)CCc1c-2sc2nc3ccccc3n12 [Example 13, 2-amino-4,5-dihydrobenzimidazo[2,1-b]thiazolo[5,4-g]benzothiazole dihydrobromide] |  |  |  |  |  | 34.0% | 
4.00 | NC(N)=Nc1nc2c(s1)-c1nc(N)sc1CC2 [Example 18] |  |  |  |  |  |  | 
4.31 | Nc1nc2c(s1)CCc1nc3ccccn3c1-2 [Example 17, 2-amino-4,5-dihydropyrido[1,2-a]thiazolo [5,4-g]benzimidazole] | 2.91 mg/kg | 31.59% | 18.7 mg/kg | 4.68 mg/kg | 17.6 mg/kg |  | 15.4 mg/kg
